Source: the CheMixHub ionic liquid set
± gives the uncertainty stated by the source.

Assay: xn = mol fraction of the nth substance listed

CCOS(=O)(=O)[O-].CC[n+]1ccn(C)c1 + CCO + O
298.15 K, 101 kPa
Settings	viscosity [mPa·s]
x2 = 0.0425, x3 = 0.9493	1.473 ± 0.015
x2 = 0.0462, x3 = 0.9365	1.767 ± 0.016
x2 = 0.054, x3 = 0.9172	2.239 ± 0.017
x2 = 0.0603, x3 = 0.8923	2.787 ± 0.02
x2 = 0.0723, x3 = 0.8613	3.311 ± 0.023
x2 = 0.0829, x3 = 0.8208	4.237 ± 0.029
x2 = 0.0885, x3 = 0.9037	2.015 ± 0.016
x2 = 0.0898, x3 = 0.1724	43.71 ± 0.84
x2 = 0.0906, x3 = 0.3653	26.4 ± 0.39
x2 = 0.1018, x3 = 0.8819	2.162 ± 0.017
x2 = 0.1162, x3 = 0.8569	2.603 ± 0.019
x2 = 0.1307, x3 = 0.8254	2.848 ± 0.02
x2 = 0.1473, x3 = 0.8454	2.302 ± 0.018
x2 = 0.1532, x3 = 0.7862	3.265 ± 0.022
x2 = 0.1618, x3 = 0.823	2.558 ± 0.019
x2 = 0.1776, x3 = 0.736	3.981 ± 0.027
x2 = 0.1798, x3 = 0.7952	2.666 ± 0.019
x2 = 0.1867, x3 = 0.3267	19.71 ± 0.27
x2 = 0.203, x3 = 0.4762	11.23 ± 0.11
x2 = 0.2036, x3 = 0.7562	3.061 ± 0.022
x2 = 0.213, x3 = 0.6721	4.695 ± 0.034
x2 = 0.2156, x3 = 0.7777	2.443 ± 0.018
x2 = 0.2354, x3 = 0.7098	3.148 ± 0.022
x2 = 0.2358, x3 = 0.7503	2.537 ± 0.019
x2 = 0.2581, x3 = 0.7192	2.751 ± 0.02
x2 = 0.2884, x3 = 0.6757	2.836 ± 0.022
x2 = 0.2972, x3 = 0.6968	2.342 ± 0.019
x2 = 0.3097, x3 = 0.4125	8.578 ± 0.08
x2 = 0.3172, x3 = 0.5831	4.026 ± 0.031
x2 = 0.3196, x3 = 0.668	2.391 ± 0.02
x2 = 0.3235, x3 = 0.6281	3.109 ± 0.023
x2 = 0.3439, x3 = 0.6361	2.653 ± 0.02
x2 = 0.3528, x3 = 0.1226	18.65 ± 0.27
x2 = 0.354, x3 = 0.5781	3.217 ± 0.024
x2 = 0.3804, x3 = 0.5884	2.55 ± 0.021
x2 = 0.3862, x3 = 0.6086	2.334 ± 0.018
x2 = 0.4044, x3 = 0.3559	6.856 ± 0.061
x2 = 0.4138, x3 = 0.5756	2.347 ± 0.02
x2 = 0.4195, x3 = 0.5389	2.799 ± 0.023
x2 = 0.4403, x3 = 0.5426	2.299 ± 0.021
x2 = 0.4582, x3 = 0.4849	2.967 ± 0.024
x2 = 0.4657, x3 = 0.1012	12.87 ± 0.16
x2 = 0.4793, x3 = 0.4944	2.444 ± 0.023
x2 = 0.4911, x3 = 0.5046	2.027 ± 0.02
x2 = 0.521, x3 = 0.4447	2.385 ± 0.02
x2 = 0.5486, x3 = 0.4376	2.109 ± 0.018
x2 = 0.5636, x3 = 0.3905	2.443 ± 0.022
x2 = 0.6042, x3 = 0.159	5.533 ± 0.048
x2 = 0.6339, x3 = 0.3399	1.976 ± 0.017
x2 = 0.6484, x3 = 0.2101	3.5 ± 0.027
x2 = 0.6523, x3 = 0.3414	1.735 ± 0.016
x2 = 0.6548, x3 = 0.0654	6.067 ± 0.057
x2 = 0.6675, x3 = 0.2976	2.007 ± 0.017
x2 = 0.7086, x3 = 0.2767	1.737 ± 0.016
x2 = 0.7178, x3 = 0.241	2.045 ± 0.017
x2 = 0.7723, x3 = 0.2038	1.728 ± 0.016
x2 = 0.8545, x3 = 0.0276	2.451 ± 0.02
x2 = 0.8653, x3 = 0.125	1.406 ± 0.015
x2 = 0.9072, x3 = 0.0792	1.343 ± 0.014
x2 = 0.9667, x3 = 0.0134	1.317 ± 0.014

CCCC[n+]1ccn(C)c1C.F[B-](F)(F)F + CC[N+](C)(CC)CCOC.F[B-](F)(F)F
100 kPa, x2 = 0
Settings	electrical conductivity [S/m]
333.15 K	0.335 ± 0.02
338.15 K	0.447 ± 0.027
343.15 K	0.53 ± 0.032
348.15 K	0.63 ± 0.038

CCCCn1cc[n+](CCOCCOCCOCC[n+]2ccn(CCCC)c2)c1.O=S(=O)([N-]S(=O)(=O)C(F)(F)F)C(F)(F)F.O=S(=O)([N-]S(=O)(=O)C(F)(F)F)C(F)(F)F + CC[n+]1ccn(C)c1.N#C[N-]C#N + O=S(=O)([N-]S(=O)(=O)C(F)(F)F)C(F)(F)F.[Li+]
100 kPa, x1 = 0.1386, x2 = 0.7575
Settings	electrical conductivity [S/m]
298 K	0.61 ± 0.024
303 K	0.773 ± 0.031
313 K	0.902 ± 0.036
323 K	1.18 ± 0.047
333 K	1.51 ± 0.06
344 K	1.89 ± 0.076

CCOS(=O)(=O)[O-].CC[n+]1ccn(C)c1 + CC[n+]1ccn(C)c1.N#C[S-]
Settings	viscosity [mPa·s]
353.15 K, 100 kPa, x2 = 0	15 ± 0.62

CCOS(=O)(=O)[O-].CC[n+]1ccn(C)c1 + CC[n+]1ccn(C)c1.O=S(=O)([N-]S(=O)(=O)C(F)(F)F)C(F)(F)F
Settings	viscosity [mPa·s]
298.15 K, 100 kPa, x2 = 0	100.6 ± 1.8

[I-].[Li+] + CC[n+]1ccn(C)c1.O=S(=O)([N-]S(=O)(=O)C(F)(F)F)C(F)(F)F
electrical conductivity [S/m], 101 kPa
Settings	x2 = 0.8099	x2 = 0.8475	x2 = 0.8826	x2 = 0.9207	x2 = 0.9587
288.15 K	–	0.225 ± 0.023	0.294 ± 0.03	0.385 ± 0.039	0.497 ± 0.05
298.15 K	0.286 ± 0.029	0.376 ± 0.038	0.473 ± 0.048	0.602 ± 0.06	0.744 ± 0.075
333.15 K	1.06 ± 0.11	1.25 ± 0.12	1.43 ± 0.14	1.66 ± 0.17	1.94 ± 0.19

[I-].[Li+] + CC[n+]1ccn(C)c1.O=S(=O)([O-])C(F)(F)F
electrical conductivity [S/m], 101 kPa
Settings	288.15 K	298.15 K	333.15 K
x1 = 0.007746	0.575 ± 0.058	0.843 ± 0.085	2.22 ± 0.22
x1 = 0.01537	0.548 ± 0.055	0.817 ± 0.082	2.15 ± 0.21
x2 = 0.9746	0.556 ± 0.056	0.827 ± 0.083	2.17 ± 0.22

NCCOCCO + CN1CCCC1=O + CCCC[n+]1ccn(C)c1.O=S(=O)([N-]S(=O)(=O)C(F)(F)F)C(F)(F)F
viscosity [mPa·s], 101 kPa
Settings	293.15 K	298.15 K	303.15 K	308.15 K	313.15 K	318.15 K	323.15 K	328.15 K	333.15 K
x1 = 0.2949, x2 = 0.6792	5.359 ± 0.059	4.682 ± 0.051	4.146 ± 0.045	3.69 ± 0.039	3.316 ± 0.035	3.017 ± 0.032	2.747 ± 0.029	2.523 ± 0.026	2.335 ± 0.024
x1 = 0.3615, x2 = 0.5637	8.078 ± 0.085	6.927 ± 0.073	6.008 ± 0.063	5.26 ± 0.055	4.651 ± 0.049	4.139 ± 0.044	3.714 ± 0.039	3.359 ± 0.035	3.062 ± 0.032
x1 = 0.4113, x2 = 0.453	12.21 ± 0.2	10.27 ± 0.17	8.74 ± 0.15	7.52 ± 0.12	6.54 ± 0.11	5.736 ± 0.09	5.069 ± 0.078	4.517 ± 0.068	4.053 ± 0.053

CC(=O)[O-].Cn1cc[nH+]c1 + COS(=O)(=O)[O-].Cn1cc[n+](C)c1
298.15 K, 100 kPa
Settings	viscosity [mPa·s]
x1 = 0.1	90.2 ± 2.3
x1 = 0.19	77.2 ± 1.8
x1 = 0.31	56.3 ± 1.3
x1 = 0.4	40.7 ± 0.9
x1 = 0.5	35.3 ± 0.8
x1 = 0.59	27.7 ± 0.6

CCOS(=O)(=O)[O-].CC[n+]1ccn(C)c1 + CS(C)=O
101 kPa, x1 = 0.3333
Settings	viscosity [mPa·s]
288.15 K	3.92 ± 0.39
293.15 K	3.53 ± 0.36
313.15 K	2.26 ± 0.23
348.15 K	1.27 ± 0.13

CC[NH+](CC)CC.O=P([O-])(O)O + CS(C)=O
viscosity [mPa·s], 101 kPa
Settings	298.15 K	303.15 K	308.15 K
x2 = 0	64.3 ± 1.3	57.1 ± 1.2	49.5 ± 1
x2 = 0.0242	61.3 ± 1.3	54.6 ± 1.1	47.55 ± 0.98
x2 = 0.0507	58.2 ± 1.2	51.7 ± 1.1	45.51 ± 0.94
x2 = 0.1295	49.7 ± 1	44.43 ± 0.92	39.41 ± 0.81
x2 = 0.1963	43.47 ± 0.9	38.82 ± 0.8	34.74 ± 0.72
x2 = 0.2596	37.82 ± 0.78	34.13 ± 0.7	30.67 ± 0.63
x2 = 0.3272	32.61 ± 0.67	29.61 ± 0.61	26.81 ± 0.55
x2 = 0.3878	28.47 ± 0.59	26.13 ± 0.54	23.64 ± 0.49
x2 = 0.4494	24.64 ± 0.51	22.94 ± 0.47	20.75 ± 0.43
x2 = 0.5141	21.1 ± 0.44	19.68 ± 0.41	17.92 ± 0.37
x2 = 0.5888	17.29 ± 0.36	16.43 ± 0.34	14.93 ± 0.31
x2 = 0.6387	15 ± 0.31	14.42 ± 0.3	13.14 ± 0.27
x2 = 0.7055	12.26 ± 0.25	11.95 ± 0.25	10.82 ± 0.22
x2 = 0.7616	10.18 ± 0.21	9.98 ± 0.21	9.01 ± 0.19
x2 = 0.8342	7.58 ± 0.16	7.36 ± 0.15	6.75 ± 0.14
x2 = 0.8828	5.7 ± 0.12	5.6 ± 0.12	5.23 ± 0.11
x2 = 0.9272	4.37 ± 0.09	4.24 ± 0.09	3.84 ± 0.08
x2 = 0.9543	3.31 ± 0.07	3.2 ± 0.07	2.98 ± 0.06
x2 = 0.9772	2.7 ± 0.06	2.56 ± 0.05	2.33 ± 0.05
